{"source": "patent US12195427B2", "about": "“MASP-2 inhibitors and methods of use” (priority 2018, dated 2025)", "molecular_target": "MASP-2 CCP2-SP (Homo sapiens (Human), UniProt O00187)", "sequence (O00187 445-686)": "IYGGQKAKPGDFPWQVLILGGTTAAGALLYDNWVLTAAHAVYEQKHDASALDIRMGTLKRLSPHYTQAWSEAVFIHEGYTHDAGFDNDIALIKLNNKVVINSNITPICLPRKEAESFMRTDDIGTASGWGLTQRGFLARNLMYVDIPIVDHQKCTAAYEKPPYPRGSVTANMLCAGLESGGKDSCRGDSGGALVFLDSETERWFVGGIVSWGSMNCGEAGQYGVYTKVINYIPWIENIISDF", "sequence (O00187 364-432 partner)": "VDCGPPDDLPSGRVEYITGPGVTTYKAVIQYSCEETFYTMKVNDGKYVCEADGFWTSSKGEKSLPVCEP", "experiment": "MASP-2 co-crystallization, X-ray crystallography and structure analysis (H-bonds, van der Waals contacts);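 on Ligand-pharmacophore element distance, pharmacophore element C2: distance from averaged pharmacophore element to bound ligand; missing value means element absent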;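 on Ligand-pharmacophore element distance, pharmacophore element C3: distance from averaged pharmacophore element to bound ligand; missing value means element absent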;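 on Ligand-pharmacophore element distance, pharmacophore element C4: distance from averaged pharmacophore element to bound ligand; missing value means element absent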;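 on Ligand-pharmacophore element distance, pharmacophore element C5: distance from averaged pharmacophore element to bound ligand; missing value means element absent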", "parameters": "van der Waals contact distance, MASP-2 HIS 483 atom CD2 / van der Waals contact distance, MASP-2 HIS 483 atom NE2 / van der Waals contact distance, SER 654 C to compound atom / van der Waals contact distance, SER 654 O to compound atom / van der Waals contact distance, TRP 655 C to compound atom / van der Waals contact distance, MASP-2 GLY 528 atom CA / van der Waals contact distance TRP 655 atom CZ3 / van der Waals contact distance TRP 655 atom N / van der Waals contact distance TRP 655 atom CE3 / van der Waals contact distance GLY 656 atom C / van der Waals contact distance GLY 656 atom CA / van der Waals contact distance GLY 656 atom O / van der Waals contact distance, MASP-2 TYR 607 atom CD1 / van der Waals contact distance, MASP-2 PRO 606 atom O / d(C3,CA1) / d(CA1,N1)2 / d(H4,O1) / d(H4,O2) / d(O1,O2) / d(CA1,O2) / d(CA6,O1) / d(CA6,O2) / d(CA1,C5) / d(O2,H3) / d(N2,C2) / d(CA5,N2) / d(N2,C4) / d(N2,C6) / d(N2,CA3) / d(N2,O3) / d(O4,H2): unit not given beside the values", "settings": "for Ligand-pharmacophore element distance, pharmacophore element C2 / Ligand-pharmacophore element distance, pharmacophore element C3 / Ligand-pharmacophore element distance, pharmacophore element C4 / Ligand-pharmacophore element distance, pharmacophore element C5 / Ligand-pharmacophore element distance, pharmacophore element C6 / Ligand-pharmacophore element distance, pharmacophore element C7 / Ligand-pharmacophore element distance, pharmacophore element CA1 / Ligand-pharmacophore element distance, pharmacophore element CA2 / Ligand-pharmacophore element distance, pharmacophore element CA3 / Ligand-pharmacophore element distance, pharmacophore element CA4 / Ligand-pharmacophore element distance, pharmacophore element CA5 / Ligand-pharmacophore element distance, pharmacophore element CA6: Table A4-1; for d(N2,C2) / d(N2,CA2) / d(O2,H3) / d(O2,N2): Table A5-2 pharmacophore distance, S3/S4 region; for a(O1, O2, H3) / a(O1, O2, N2) / a(O2, N2, C2) / a(O2, N2, CA2): Table A6-2 pharmacophore angle; for Pharmacophore torsion angle a(O1, O2, N2, CA2): Table A7-2", "procedure,_shortened": "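Contacts and H-bonds come from partially refined soaked-crystal structures of recombinant human CCP2-SP made in E. coli, solved by molecular replacement against 1Q3X fragments. Where several ligand poses appeared, only one was analysed; listed nonbonded contacts may include possible H-bond pairings.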", "key": {"[1]": {"settings": "Table A5-1 pharmacophore: distance between elements, S2/S1 region"}, "[2]": {"settings": "Table A7-1, between pharmacophore elements of the bound compound"}, "[3]": {"settings": "between pharmacophore elements of the bound compound"}, "[4]": {"settings": "Table A8-6, nearest protein atom in cell to the left"}}, "data": [{"smiles": "C[C@H](NC(=O)[C@H](N)CCCc1ccccc1)C(=O)NCc1ccc(C(=N)N)cc1.Cl.Cl", "note": "[1042_1]", "values": [{"measurement": "Ligand-pharmacophore element distance, pharmacophore element C2", "value": 1.81}, {"measurement": "Ligand-pharmacophore element distance, pharmacophore element C3", "value": 0}, {"measurement": "Ligand-pharmacophore element distance, pharmacophore element C4", "value": 0}, {"measurement": "Ligand-pharmacophore element distance, pharmacophore element C5", "value": 0}, {"measurement": "Ligand-pharmacophore element distance, pharmacophore element C6", "value": 0}, {"measurement": "Ligand-pharmacophore element distance, pharmacophore element C7", "value": 0}, {"measurement": "Ligand-pharmacophore element distance, pharmacophore element CA1", "value": 0.87}, {"measurement": "Ligand-pharmacophore element distance, pharmacophore element CA2", "value": 0.48}, {"measurement": "Ligand-pharmacophore element distance, pharmacophore element CA3", "value": 0}, {"measurement": "Ligand-pharmacophore element distance, pharmacophore element CA4", "value": 0}, {"measurement": "Ligand-pharmacophore element distance, pharmacophore element CA5", "value": 0}, {"measurement": "Ligand-pharmacophore element distance, pharmacophore element CA6", "value": 0}, {"measurement": "Ligand-pharmacophore element distance, pharmacophore element H1", "setting": "Table A4-2, element H1", "value": 0}, {"measurement": "Ligand-pharmacophore element distance, pharmacophore element H2", "setting": "Table A4-2, element H2", "value": 0}, {"measurement": "Ligand-pharmacophore element distance, pharmacophore element H3", "setting": "Table A4-2, element H3", "value": 5.4}, {"measurement": "Ligand-pharmacophore element distance, pharmacophore element H4", "setting": "Table A4-2, element H4", "value": 3.08}, {"measurement": "Ligand-pharmacophore element distance, pharmacophore element N1", "setting": "Table A4-2, element N1", "value": 1.3}, {"measurement": "Ligand-pharmacophore element distance, pharmacophore element N2", "setting": "Table A4-2, element N2", "value": 0.56}, {"measurement": "Ligand-pharmacophore element distance, pharmacophore element O1", "setting": "Table A4-2, element O1", "value": 2.71}, {"measurement": "Ligand-pharmacophore element distance, pharmacophore element O2", "setting": "Table A4-2, element O2", "value": 0.67}, {"measurement": "Ligand-pharmacophore element distance, pharmacophore element O3", "setting": "Table A4-2, element O3", "value": 0}, {"measurement": "Ligand-pharmacophore element distance, pharmacophore element O4", "setting": "Table A4-2, element O4", "value": 0}, {"measurement": "d(CA1,N1)", "setting": "[1]", "value": 3.58}, {"measurement": "d(CA1,O1)", "setting": "[1]", "value": 3.98}, {"measurement": "d(CA1,O2)", "setting": "[1]", "value": 4.13}, {"measurement": "d(H4,O1)", "setting": "[1]", "value": 3.35}, {"measurement": "d(H4,O2)", "setting": "[1]", "value": 3.67}, {"measurement": "d(O1,O2)", "setting": "[1]", "value": 3.40}, {"measurement": "d(N2,C2)", "value": 3.42}, {"measurement": "d(N2,CA2)", "value": 6.20}, {"measurement": "d(O2,H3)", "value": 5.43}, {"measurement": "d(O2,N2)", "value": 2.64}, {"measurement": "a(CA1, O1, O2)", "setting": "Table A6-1 pharmacophore angle", "value": 117.21}, {"measurement": "a(O1, O2, H4)", "setting": "Table A6-1 pharmacophore angle", "value": 122.15}, {"measurement": "A(N1, CA1, O1) a)", "setting": "Table A6-1 pharmacophore angle, all compounds with protonatable center N1 except Methyl-amino-pyridine", "value": 158.11}, {"measurement": "a(O1, O2, H3)", "value": 149.96}, {"measurement": "a(O1, O2, N2)", "value": 170.80}, {"measurement": "a(O2, N2, C2)", "value": 140.47}, {"measurement": "a(O2, N2, CA2)", "value": 155.50}, {"measurement": "Pharmacophore torsion angle a(H4, O1, O2, H3)", "setting": "[2]", "value": "−19.99"}, {"measurement": "Pharmacophore torsion angle a(H4, O1, O2, N2)", "setting": "[2]", "value": 68.67}, {"measurement": "Pharmacophore torsion angle a(N1, CA1, O2, H4)", "setting": "[2]", "value": 9.10}, {"measurement": "Pharmacophore torsion angle a(O1, H4, O2, CA1)", "setting": "[2]", "value": "−160.50"}, {"measurement": "Pharmacophore torsion angle a(O1, O2, N2, C2)", "setting": "[2]", "value": 115.48}, {"measurement": "Pharmacophore torsion angle a(O1, O2, N2, CA2)", "setting": "[3]", "value": 136.01}, {"measurement": "Pharmacophore protein distance to MET_658 (first MET_658 column)", "setting": "Table A8-6, 6th residue column, nearest protein atom in cell to the left", "value": 2.06}, {"measurement": "Pharmacophore protein distance to MET_658 (second MET_658 column)", "setting": "Table A8-6, 9th residue column, nearest protein atom in cell to the left", "value": 3.40}, {"measurement": "Pharmacophore protein distance to GLY_528", "setting": "[4]", "value": 4.67}, {"measurement": "Pharmacophore protein distance to PHE_529", "setting": "[4]", "value": 3.84}, {"measurement": "Pharmacophore protein distance to PRO_608", "setting": "[4]", "value": 3.46}, {"measurement": "Pharmacophore protein distance to SER_611", "setting": "[4]", "value": 2.14}, {"measurement": "Pharmacophore protein distance to TRP_655", "setting": "Table A8-6, pharmacophore elements C6, CA3, O3, H1, nearest protein atom in cell to the left", "value": 3.28}]}, {"smiles": "C[C@H](NC(=O)[C@H]1C[C@@H](c2ccccc2)CCN1)C(=O)NCc1cc(Cl)ccc1O.Cl", "note": "[1078_4]", "values": [{"measurement": "Ligand-pharmacophore element distance, pharmacophore element C2", "value": 0.67}, {"measurement": "Ligand-pharmacophore element distance, pharmacophore element C3", "value": 0}, {"measurement": "Ligand-pharmacophore element distance, pharmacophore element C4", "value": 0}, {"measurement": "Ligand-pharmacophore element distance, pharmacophore element C5", "value": 0.52}, {"measurement": "Ligand-pharmacophore element distance, pharmacophore element C6", "value": 0}, {"measurement": "Ligand-pharmacophore element distance, pharmacophore element C7", "value": 0}, {"measurement": "Ligand-pharmacophore element distance, pharmacophore element CA1", "value": 1.62}, {"measurement": "Ligand-pharmacophore element distance, pharmacophore element CA2", "value": 0.59}, {"measurement": "Ligand-pharmacophore element distance, pharmacophore element CA3", "value": 0}, {"measurement": "Ligand-pharmacophore element distance, pharmacophore element CA4", "value": 0}, {"measurement": "Ligand-pharmacophore element distance, pharmacophore element CA5", "value": 0}, {"measurement": "Ligand-pharmacophore element distance, pharmacophore element CA6", "value": 0}, {"measurement": "d(CA1,C5)", "setting": "[1]", "value": 3.13}, {"measurement": "d(CA1,O1)", "setting": "[1]", "value": 4.56}, {"measurement": "d(CA1,O2)", "setting": "[1]", "value": 4.61}, {"measurement": "d(CA1,O4)", "setting": "[1]", "value": 2.76}, {"measurement": "d(H4,O1)", "setting": "[1]", "value": 2.27}, {"measurement": "d(H4,O2)", "setting": "[1]", "value": 2.64}, {"measurement": "d(O1,O2)", "setting": "[1]", "value": 3.39}, {"measurement": "d(O4,H2)", "setting": "[1]", "value": 0.97}, {"measurement": "d(N2,C2)", "value": 1.51}, {"measurement": "d(N2,CA2)", "value": 5.66}, {"measurement": "d(O2,H3)", "value": 2.72}, {"measurement": "d(O2,N2)", "value": 2.70}, {"measurement": "a(C5, CA1, O1)", "setting": "Table A6-1 pharmacophore angle", "value": 161.60}, {"measurement": "a(CA1, O1, O2)", "setting": "Table A6-1 pharmacophore angle", "value": 112.48}, {"measurement": "a(CA1, O4, H2)", "setting": "Table A6-1 pharmacophore angle", "value": 128.57}, {"measurement": "a(O1, CA1, O4)", "setting": "Table A6-1 pharmacophore angle", "value": 65.56}, {"measurement": "a(O1, O2, H4)", "setting": "Table A6-1 pharmacophore angle", "value": 93.17}, {"measurement": "a(O1, O2, H3)", "value": 141.42}, {"measurement": "a(O1, O2, N2)", "value": 146.07}, {"measurement": "a(O2, N2, C2)", "value": 126.96}, {"measurement": "a(O2, N2, CA2)", "value": 155.54}, {"measurement": "Pharmacophore torsion angle a(C5, CA1, O1, H4)", "setting": "[2]", "value": 32.90}, {"measurement": "Pharmacophore torsion angle a(H4, O1, O2, H3)", "setting": "[2]", "value": "−123.98"}, {"measurement": "Pharmacophore torsion angle a(H4, O1, O2, N2)", "setting": "[2]", "value": "−113.42"}, {"measurement": "Pharmacophore torsion angle a(O1, H4, O2, CA1)", "setting": "[2]", "value": "−58.33"}, {"measurement": "Pharmacophore torsion angle a(O1, O2, N2, C2)", "setting": "[2]", "value": 124.98}, {"measurement": "Pharmacophore torsion angle a(O1, O2, N2, CA2)", "setting": "[3]", "value": 136.93}]}]}
